From PMC9386001, “Identification of naturally occurring inhibitors in Xian-Ling-Gu-Bao capsule against the glucuronidation of estrogens” (Frontiers in Pharmacology, 2022)
Where two headings read alike, the source gives them in different places.

Legend:
UGT2B7 = biological target: T1, UGT2B7 (Homo sapiens, UniProt P16662); test: Inhibition of UGT2B7 (zidovudine-N-glucuronidation); details: for Inhibitory type: best model by smallest AIC and SC; for activity at 10 µM: human, UGT2B7 enzyme (optimized UGT2B7 incubation system), probe zidovudine (AZT); for α: mixed-type inhibition model, αKi
T1 sequence (P16662 24-529): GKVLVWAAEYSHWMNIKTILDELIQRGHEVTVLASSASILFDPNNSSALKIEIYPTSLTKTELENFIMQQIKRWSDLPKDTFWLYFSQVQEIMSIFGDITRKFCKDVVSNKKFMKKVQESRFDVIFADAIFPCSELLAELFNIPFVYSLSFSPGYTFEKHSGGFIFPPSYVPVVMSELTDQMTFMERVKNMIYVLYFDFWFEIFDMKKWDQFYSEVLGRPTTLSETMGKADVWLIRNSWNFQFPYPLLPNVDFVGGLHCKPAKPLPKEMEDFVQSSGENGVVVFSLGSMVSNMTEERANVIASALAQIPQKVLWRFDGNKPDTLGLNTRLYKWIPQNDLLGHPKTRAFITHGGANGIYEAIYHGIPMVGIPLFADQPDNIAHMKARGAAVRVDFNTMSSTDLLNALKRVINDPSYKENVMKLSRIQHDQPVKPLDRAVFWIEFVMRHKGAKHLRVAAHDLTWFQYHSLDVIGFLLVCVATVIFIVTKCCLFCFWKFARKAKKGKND
Protocol: (§1) The final volume of solvent in incubations was 1%. In addition, emodin, atazanavir, and diclofenac were considered as positive controls for UGT1A10, UGT1A1, and UGT2B7, respectively.
(§2) Competitive inhibition, non-competitive inhibition, and mixed-type inhibition models were used to estimate the Ki values by nonlinear regression based on Eqs 6–8, respectively.

UGT1A1 [1] = biological target: T2, UGT1A1 (Homo sapiens, UniProt P22309); test: Inhibition of UGT1A1 (β-estradiol-3-O-glucuronidation); details: for Inhibitory type: best model by smallest AIC and SC; for activity at 10 µM: human, human UGT1A1 enzyme, probe β-estradiol (E2)
T2 sequence (P22309 26-533): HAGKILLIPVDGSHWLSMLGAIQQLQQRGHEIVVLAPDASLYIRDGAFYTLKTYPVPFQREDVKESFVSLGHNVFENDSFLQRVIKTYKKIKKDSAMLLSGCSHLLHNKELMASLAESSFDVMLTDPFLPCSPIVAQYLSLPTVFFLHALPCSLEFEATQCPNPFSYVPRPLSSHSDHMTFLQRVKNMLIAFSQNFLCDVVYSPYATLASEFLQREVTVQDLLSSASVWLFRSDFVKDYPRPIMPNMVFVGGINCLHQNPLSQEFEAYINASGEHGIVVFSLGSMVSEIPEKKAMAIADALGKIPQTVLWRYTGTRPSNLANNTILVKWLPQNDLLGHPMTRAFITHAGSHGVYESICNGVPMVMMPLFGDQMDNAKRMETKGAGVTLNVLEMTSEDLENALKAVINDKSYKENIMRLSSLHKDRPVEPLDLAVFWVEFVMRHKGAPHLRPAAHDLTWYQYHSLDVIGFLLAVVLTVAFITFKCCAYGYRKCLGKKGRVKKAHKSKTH
Protocol: as §1, §2

UGT1A10 = biological target: T3, UGT1A10 (Homo sapiens, UniProt Q9HAW8); test: Inhibition of UGT1A10 (4-methylumbelliferone-O-glucuronidation); details: for Inhibitory type: UGT1A10, best model by smallest AIC and SC; for activity at 10 µM: human, expressed human UGT1A10 enzyme, probe 4-methylumbelliferone (4-MU)
T3 sequence (Q9HAW8 26-530): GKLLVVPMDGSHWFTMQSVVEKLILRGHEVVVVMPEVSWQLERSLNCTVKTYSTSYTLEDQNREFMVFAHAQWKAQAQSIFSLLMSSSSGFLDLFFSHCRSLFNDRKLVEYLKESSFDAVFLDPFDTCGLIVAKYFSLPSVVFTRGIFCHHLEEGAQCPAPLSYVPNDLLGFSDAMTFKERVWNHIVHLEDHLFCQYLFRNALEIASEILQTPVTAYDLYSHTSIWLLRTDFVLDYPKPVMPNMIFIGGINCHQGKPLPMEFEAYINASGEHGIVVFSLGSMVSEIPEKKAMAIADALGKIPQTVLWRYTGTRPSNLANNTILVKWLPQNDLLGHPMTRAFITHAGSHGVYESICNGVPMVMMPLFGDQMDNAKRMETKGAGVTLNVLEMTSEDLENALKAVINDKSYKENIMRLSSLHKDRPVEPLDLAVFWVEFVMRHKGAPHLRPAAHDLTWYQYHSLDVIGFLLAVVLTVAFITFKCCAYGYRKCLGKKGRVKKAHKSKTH
Protocol: as §1, §2

UGT1A1 [2] = system: UGT1A1; parameters: method as in Wang et al., 2015a; details: ref Wang et al., 2015a; cited from earlier work

| IC50 (UGT2B7) [nM] | Inhibitory type (UGT2B7; UGT2B7) | activity at 10 µM (UGT2B7) [%] | IC50 (UGT1A1 [1]) [nM] | Ki (UGT1A1 [1]) [nM] | Inhibitory type (UGT1A1 [1]; UGT1A1) | activity at 10 µM (UGT1A1 [1]) [%] | Ki (UGT2B7) [nM] | IC50 (UGT1A10) [nM] | Ki (UGT1A10) [nM] | Inhibitory type (UGT1A10) | activity at 10 µM (UGT1A10) [%] | α (UGT2B7; UGT2B7) | Ki (UGT1A1 [1]; UGT1A1, substrate E2) [nM] | Ki (UGT2B7; UGT2B7, substrate AZT) [nM] | SMILES | Ki (UGT1A1 [2]) [nM] |
| --- | --- | --- | --- | --- | --- | --- | --- | --- | --- | --- | --- | --- | --- | --- | --- | --- |
| 4550 ± 430 | Competitive | 35.5 |  |  |  |  |  |  |  |  |  |  |  |  | C=C[C@@](C)(/C=C/c1ccc(O)cc1)CCC=C(C)C [Bakuchiol, bakuchiol] |  |
| 4650 ± 520 | Competitive | 27.2 | 530 ± 70 | 1100 ± 80 | Non-competitive | 13 | 1870 ± 200 |  |  |  |  |  |  |  | CC(C)=CCc1cc(C(=O)/C=C/c2ccc(O)cc2)c(O)cc1O [Bavachalcone, bavachalcone] |  |
| 4970 ± 550 | Mixed type | 32.5 | 610 ± 20 | 400 ± 50 | Non-competitive | 2.43 | 640 ± 160 | 5630 ± 460 | 2810 ± 210 | Competitive | 35.6 | 69.70 ± 6.67 |  |  | CC(C)=CCc1cc2c(cc1O)O[C@H](c1ccc(O)cc1)CC2=O [Bavachin, bavachin] | < 1000 |
| 880 ± 80 | Mixed type | 0 | 440 ± 50 | 440 ± 70 | Competitive | 0.72 | 360 ± 70 | 2910 ± 340 | 780 ± 60 | Non-competitive | 13.9 | 5.17 ± 3.55 |  |  | CC(C)=CCC/C(C)=C/Cc1cc(-c2coc3cc(O)ccc3c2=O)ccc1O [Corylifol A, corylifol A] | < 1000 |
|  |  |  |  |  |  |  |  | 5940 ± 1240 | 9770 ± 820 |  | 37.3 |  |  |  | COc1ccc(-c2oc3c(CC=C(C)C)c(O[C@@H]4O[C@H](CO)[C@@H](O)[C@H](O)[C@H]4O)cc(O)c3c(=O)c2O[C@@H]2O[C@@H](C)[C@H](O)[C@@H](O)[C@H]2O)cc1 [Icariin, icariin] |  |
|  |  |  | 3280 ± 1200 | 6010 ± 470 | Non-competitive | 35.5 |  | 1390 ± 330 | 1920 ± 260 | Competitive | 26.5 |  |  |  | COc1ccc(-c2oc3c(CC=C(C)C)c(O[C@@H]4O[C@H](CO)[C@@H](O)[C@H](O)[C@H]4O)cc(O)c3c(=O)c2O)cc1 [Icariside I, icariside I] |  |
|  |  |  | 1280 ± 260 | 420 ± 170 | Non-competitive | 10.2 |  |  |  |  |  |  |  |  | COc1ccc(-c2oc3c(CC=C(C)C)c(O)cc(O)c3c(=O)c2O)cc1 [Icaritin, icaritin] |  |
| 1380 ± 220 | Competitive | 0 | 1650 ± 150 | 1200 ± 120 | Non-competitive | 3.97 | 300 ± 70 | 2800 ± 300 | 1660 ± 190 | Non-competitive | 8.61 |  |  |  | CC(C)=CCc1c(O)ccc(C(=O)/C=C/c2ccc(O)cc2)c1O [Isobavachalcone, isobavachalcone] |  |
| 110 ± 10 | Competitive | 0 | 1730 ± 110 |  | Competitive | 4.58 |  | 3620 ± 360 | 1810 ± 280 | Non-competitive | 20.4 |  | 3350 ± 530 | 20 ± 10 | CC(C)=CCc1c(O)ccc2c1O[C@H](c1ccc(O)cc1)CC2=O [Isobavachin, isobavachin] |  |
